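Test compounds were applied to cells in 96-well plates for 48 hours at 5 doses. GI50: concentration for 50% inhibition of growth. TGI marks complete inhibition of growth.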
Legend:
Assay in all cases: NCI anticancer screen, dose series, 48 h
[1] = test system: SF-539 CNS
[2] = test system: HCC-2998 colon
[3] = test system: OVCAR-4 ovarian
[4] = test system: IGROV1 ovarian
[5] = test system: MOLT-4 leukemia
[6] = test system: MDA-MB-231 breast
[7] = test system: MALME-3M melanoma
[8] = test system: BT-549 breast
[9] = test system: SK-OV-3 ovarian
[10] = test system: UACC-62 melanoma
[11] = test system: NCI-H23 lung
[12] = test system: CAKI-1 renal
[13] = test system: COLO 205 colon
[14] = test system: SNB-19 CNS
[15] = test system: T-47D breast
[16] = test system: PC-3 prostate
[17] = test system: NCI-H226 lung
[18] = test system: NCI-H522 lung
[19] = test system: A549 NSCLC
[20] = test system: SK-MEL-28 melanoma
[21] = test system: OVCAR-5 ovarian
[22] = test system: EKVX NSCLC
[23] = test system: 786-0 renal
[24] = test system: HT29 colon
[25] = test system: SN12C renal
[26] = test system: U251 CNS
[27] = test system: SW-620 colon
[28] = test system: SK-MEL-2 melanoma
[29] = test system: HCT-15 colon
[30] = test system: RXF 393 renal
[31] = test system: SF-295 CNS
[32] = test system: HS 578T breast
[33] = test system: NCI-H460 lung
[34] = test system: HL-60(TB) leukemia
[35] = test system: K-562 leukemia
[36] = test system: CCRF-CEM leukemia
[37] = test system: MDA-MB-435
[38] = test system: UO-31 renal
[39] = test system: M14 melanoma
[40] = test system: HCT-116 colon
[41] = test system: DU-145 prostate
[42] = test system: NCI/ADR-RES ovarian
[43] = test system: SR leukemia
[44] = test system: KM12 colon
[45] = test system: HOP-62 NSCLC
[46] = test system: ACHN renal
[47] = test system: UACC-257 melanoma
[48] = test system: SNB-75 CNS
[49] = test system: SF-268 CNS
[50] = test system: SK-MEL-5 melanoma
[51] = test system: MCF7 breast
[52] = test system: HOP-92 NSCLC
[53] = test system: OVCAR-8 ovarian
[54] = test system: A498 renal
[55] = test system: TK-10 renal

NS(=O)(=O)c1ccc(Nc2nc(N/N=C/c3ccc(C(F)(F)F)cc3)nc(Nc3ccccc3)n2)cc1
GI50 [1]: 1.86 µM | TGI [1]: 4.23 µM | GI50 [2]: 2.97 µM | TGI [2]: 9.04 µM | GI50 [3]: 3.69 µM | TGI [3]: 64.8 µM | GI50 [4]: 2.64 µM | TGI [4]: 7.42 µM | GI50 [5]: 3.06 µM | TGI [5]: 14.4 µM | GI50 [6]: 2.31 µM | TGI [6]: 5.52 µM | GI50 [7]: 1.87 µM | TGI [7]: 3.9 µM | GI50 [8]: 2.79 µM | TGI [8]: 9.48 µM | GI50 [9]: 3.66 µM | TGI [9]: 33.8 µM | GI50 [10]: 2.35 µM | TGI [10]: 5.33 µM | GI50 [11]: 1.95 µM | TGI [11]: 4.25 µM | GI50 [12]: 3.05 µM | TGI [12]: 9.93 µM | GI50 [13]: 1.86 µM | TGI [13]: 4.37 µM | GI50 [14]: 3.46 µM | TGI [14]: 11.4 µM | GI50 [15]: 2.48 µM | TGI [15]: 9.78 µM | GI50 [16]: 2.8 µM | TGI [16]: 9.72 µM | GI50 [17]: 2.45 µM | TGI [17]: 6.22 µM | GI50 [18]: 2.66 µM | TGI [18]: 7.77 µM | GI50 [19]: 3.11 µM | TGI [19]: 11.6 µM | GI50 [20]: 2.44 µM | TGI [20]: 7.37 µM | GI50 [21]: 2.96 µM | TGI [21]: 11 µM | GI50 [22]: 2.62 µM | TGI [22]: 8.51 µM | GI50 [23]: 2.22 µM | TGI [23]: 5.2 µM | GI50 [24]: 2.44 µM | TGI [24]: 5.78 µM | GI50 [25]: 3 µM | TGI [25]: 10.2 µM | GI50 [26]: 2.68 µM | TGI [26]: 11.3 µM | GI50 [27]: 3.3 µM | TGI [27]: 11.1 µM | GI50 [28]: 2.17 µM | TGI [28]: 5 µM | GI50 [29]: 2.32 µM | TGI [29]: 6.48 µM | GI50 [30]: 1.82 µM | TGI [30]: 4.65 µM | GI50 [31]: 1.92 µM | TGI [31]: 4.07 µM | GI50 [32]: 3.07 µM | TGI [32]: > 100 µM | GI50 [33]: 3.02 µM | TGI [33]: 8.89 µM | GI50 [34]: 3.59 µM | TGI [34]: > 100 µM | GI50 [35]: 3.51 µM | TGI [35]: 12.8 µM | GI50 [36]: 3 µM | TGI [36]: > 100 µM | GI50 [37]: 2.07 µM | TGI [37]: 4.44 µM | GI50 [38]: 1.88 µM | TGI [38]: 4.64 µM | GI50 [39]: 2.51 µM | TGI [39]: 6.45 µM | GI50 [40]: 3.1 µM | TGI [40]: 10.3 µM | GI50 [41]: 3.31 µM | TGI [41]: 11 µM | GI50 [42]: 12.3 µM | TGI [42]: 75.7 µM | GI50 [43]: 3.07 µM | TGI [43]: 15.3 µM | GI50 [44]: 2.38 µM | TGI [44]: 5.61 µM | GI50 [45]: 2.15 µM | TGI [45]: 5.78 µM | GI50 [46]: 2.68 µM | TGI [46]: 7.59 µM | GI50 [47]: 2.42 µM | TGI [47]: 7.26 µM | GI50 [48]: 2.05 µM | TGI [48]: 6.24 µM | GI50 [49]: 3.51 µM | TGI [49]: 14 µM | GI50 [50]: 1.74 µM | TGI [50]: 3.18 µM | GI50 [51]: 2.18 µM | TGI [51]: 7.37 µM | GI50 [52]: 2.38 µM | TGI [52]: 6.31 µM | GI50 [53]: 2.82 µM | TGI [53]: 10.4 µM | GI50 [54]: 2.61 µM | TGI [54]: 9.26 µM | GI50 [55]: 3.45 µM | TGI [55]: 10.5 µM
